Laboratory results from patent US20060069132A1, “Azolecarboxamide herbicides” (priority 2004, published 2006).

Experiments:
[1] = system: barnyardgrass; experiment: Test A pre-/postemergence herbicide test; type: in vivo, Echinochloa crus-galli
Procedure, shortened: (§1)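 Sandy loam soil given preemergence directed spray; plants at 2 to 10 cm, one- to two-leaf stage, sprayed to runoff postemergence, compounds in non-phytotoxic solvent with surfactant. Injury rated visually versus untreated controls after about ten greenhouse days, 0 (no effect) to 100 (complete control); dash means not tested.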

[2] = system: large crabgrass; experiment: Test A pre-/postemergence herbicide test; type: in vivo, Digitaria sanguinalis
Procedure, shortened: as §1

[3] = system: giant foxtail; experiment: Test A pre-/postemergence herbicide test; type: in vivo, Setaria faberi
Procedure, shortened: as §1

[4] = system: morningglory; experiment: Test A pre-/postemergence herbicide test; type: in vivo, Ipomoea spp.
Procedure, shortened: as §1

[5] = system: redroot pigweed; experiment: Test A pre-/postemergence herbicide test; type: in vivo, Amaranthus retroflexus
Procedure, shortened: as §1

[6] = system: velvetleaf; experiment: Test A pre-/postemergence herbicide test; type: in vivo, Abutilon theophrasti
Procedure, shortened: as §1

[7] = system: barnyardgrass; experiment: Test B pre-/postemergence herbicide test; type: in vivo, Echinochloa crus-galli; conditions: for Barnyardgrass plant response rating: postemergence
Procedure, shortened: (§2)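 Evaluation is visual, comparing treated with control plants on a scale where 0 means no effect and 100 means full control. Treatments were preemergence, or postemergence on seedlings 2–18 cm tall, and held 13–15 days in the greenhouse.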

[8] = system: Surinam grass; experiment: Test B pre-/postemergence herbicide test; type: in vivo, Urochloa decumbens; conditions: for Surinam Grass plant response rating: postemergence
Procedure, shortened: (§3)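 Flooded paddy rice and barnyardgrass were treated at the 2-leaf stage; upland plantings received compound either on sown seed or on 1- to 4-leaf seedlings. All were kept 13–15 days in a greenhouse and scored visually, 0–100, relative to untreated plants.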

[9] = system: cocklebur; experiment: Test B pre-/postemergence herbicide test; type: in vivo, Xanthium strumarium; conditions: for Cocklebur plant response rating: postemergence
Procedure, shortened: as §2

[10] = system: corn; experiment: Test B pre-/postemergence herbicide test; type: in vivo, Zea mays; conditions: for Corn plant response rating: postemergence
Procedure, shortened: as §3

[11] = system: large crabgrass; experiment: Test B pre-/postemergence herbicide test; type: in vivo, Digitaria sanguinalis; conditions: for Crabgrass, Large plant response rating: postemergence
Procedure, shortened: as §3

[12] = system: giant foxtail; experiment: Test B pre-/postemergence herbicide test; type: in vivo, Setaria faberi; conditions: for Foxtail, Giant plant response rating: postemergence
Procedure, shortened: as §3

[13] = system: lambsquarters; experiment: Test B pre-/postemergence herbicide test; type: in vivo, Chenopodium album; conditions: for Lambsquarters plant response rating: postemergence
Procedure, shortened: as §3

[14] = system: morningglory; experiment: Test B pre-/postemergence herbicide test; type: in vivo, Ipomoea coccinea; conditions: for Morningglory plant response rating: postemergence
Procedure, shortened: as §2

[15] = system: pigweed; experiment: Test B pre-/postemergence herbicide test; type: in vivo, Amaranthus retroflexus; conditions: for Pigweed plant response rating: postemergence
Procedure, shortened: as §3

[16] = system: rice; experiment: Test B pre-/postemergence herbicide test; type: in vivo, Oryza sativa; conditions: preemergence
Procedure, shortened: as §2

[17] = system: velvetleaf; experiment: Test B pre-/postemergence herbicide test; type: in vivo, Abutilon theophrasti; conditions: for Velvetleaf plant response rating: postemergence
Procedure, shortened: as §3

[18] = system: blackgrass; experiment: Test B postemergence herbicide test; type: in vivo, Alopecurus myosuroides; conditions: postemergence
Procedure, shortened: (§4)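 Each value is a visual 0–100 response rating taken against controls 13 to 15 days after treatment in the greenhouse. Plants received formulated chemical postemergence at the 1- to 4-leaf stage or, in flooded paddy, at the 2-leaf stage.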

[19] = system: wheat; experiment: Test B postemergence herbicide test; type: in vivo, Triticum aestivum; design: key to Wheat plant response rating: 0 = no effect, 100 = complete control; conditions: postemergence
Procedure, shortened: as §4

[20] = system: wild oat; experiment: Test B postemergence herbicide test; type: in vivo, Avena fatua; conditions: postemergence
Procedure, shortened: as §4

[21] = system: rice; experiment: Test B flooded paddy test; type: in vivo, Oryza sativa; conditions: 1000 g ai/ha, scale 0 to 100 (0 no effect, 100 complete control)
Procedure, shortened: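 After treating 2-leaf paddy plants or 2–18 cm postemergence plants (1 to 4 leaves) with formulated chemical, researchers kept them in a greenhouse for 13–15 days. Effects were judged visually versus controls: 0 indicates none, 100 total control.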

[22] = system: small flower umbrella sedge; experiment: Test B flooded paddy test; type: in vivo, Cyperus difformis; conditions: 1000 g ai/ha, scale 0 to 100 (0 no effect, 100 complete control)
Procedure, shortened: as §4

[23] = system: ducksalad; experiment: Test B flooded paddy test; type: in vivo, Heteranthera limosa; conditions: 1000 g ai/ha, scale 0 to 100 (0 no effect, 100 complete control)
Procedure, shortened: as §4

[24] = system: barnyardgrass; experiment: Test B flooded paddy test; type: in vivo, Echinochloa crus-galli; conditions: 1000 g ai/ha, scale 0 to 100 (0 no effect, 100 complete control)
Procedure, shortened: as §4

[25] = Postemergence, 500 g ai/ha, 0 to 100 scale, 0 no effect, 100 complete control
[26] = Postemergence, 2000 g ai/ha, 0 to 100 scale, 0 no effect, 100 complete control
[27] = Preemergence, 2000 g ai/ha, visual rating, 0 to 100 scale (0 no effect, 100 complete control)
[28] = preemergence, 500 g ai/ha, visual injury, 0 to 100 scale (0 no effect, 100 complete control)
[29] = 125 g ai/ha, 0 is no effect, 100 is complete control, preemergence
[30] = 125 g ai/ha, visual rating, scale 0 (no effect) to 100 (complete control)
[31] = 500 g ai/ha, visual rating, 0 = no effect, 100 = complete control, preemergence
[32] = 500 g ai/ha, scale 0 to 100, 0 is no effect, 100 is complete control

SMILES: Cn1nc(C(C)(C)C)cc1C(=O)Nc1cccc(C(=O)NC2CC2)n1 [Compound 315]
- Barnyardgrass plant response rating [1, 25]: 20
- Plant response rating, Barnyardgrass [1, 26]: 20
- Barnyardgrass plant response rating [1, 27]: 5
- Barnyardgrass plant response rating [1, 28]: 5
- Crabgrass, Large plant response rating [2, 25]: 20
- Plant response rating, Crabgrass, Large [2, 26]: 20
- Crabgrass, Large plant response rating [2, 27]: 15
- Crabgrass, Large plant response rating [2, 28]: 5
- Foxtail, Giant plant response rating [3, 25]: 0
- Plant response rating, Foxtail, Giant [3, 26]: 0
- Foxtail, Giant plant response rating [3, 27]: 10
- Foxtail, Giant plant response rating [3, 28]: 0
- Morningglory plant response rating [4, 25]: 0
- Plant response rating, Morningglory [4, 26]: 0
- Morningglory plant response rating [4, 27]: 10
- Morningglory plant response rating [4, 28]: 5
- Pigweed plant response rating [5, 25]: 10
- Plant response rating, Pigweed [5, 26]: 20
- Pigweed plant response rating [5, 27]: 45
- Pigweed plant response rating [5, 28]: 15
- Velvetleaf plant response rating [6, 25]: 0
- Plant response rating, Velvetleaf [6, 26]: 0
- Velvetleaf plant response rating [6, 27]: 30
- Velvetleaf plant response rating [6, 28]: 10
- Plant response rating (0 to 100 scale), Barnyardgrass [7, 29]: 0
- Barnyardgrass plant response rating [7, 30]: 10
- Plant response rating, Barnyardgrass [7, 31]: 20
- Barnyardgrass plant response rating [7, 32]: 20
- Plant response rating (0 to 100 scale), Surinam Grass [8, 29]: 0
- Surinam Grass plant response rating [8, 30]: 20
- Plant response rating, Surinam Grass [8, 31]: 10
- Surinam Grass plant response rating [8, 32]: 20
- Plant response rating (0 to 100 scale), Cocklebur [9, 29]: 0
- Cocklebur plant response rating [9, 30]: 20
- Plant response rating, Cocklebur [9, 31]: 0
- Cocklebur plant response rating [9, 32]: 20
- Plant response rating (0 to 100 scale), Corn [10, 29]: 0
- Corn plant response rating [10, 30]: 10
- Plant response rating, Corn [10, 31]: 0
- Corn plant response rating [10, 32]: 20
- Plant response rating (0 to 100 scale), Crabgrass, Large [11, 29]: 0
- Crabgrass, Large plant response rating [11, 30]: 0
- Plant response rating, Crabgrass, Large [11, 31]: 20
- Crabgrass, Large plant response rating [11, 32]: 10
- Plant response rating (0 to 100 scale), Foxtail, Giant [12, 29]: 0
- Foxtail, Giant plant response rating [12, 30]: 0
- Plant response rating, Foxtail, Giant [12, 31]: 20
- Foxtail, Giant plant response rating [12, 32]: 10
- Plant response rating (0 to 100 scale), Lambsquarters [13, 29]: 0
- Lambsquarters plant response rating [13, 30]: 50
- Plant response rating, Lambsquarters [13, 31]: 80
- Lambsquarters plant response rating [13, 32]: 60
- Plant response rating (0 to 100 scale), Morningglory [14, 29]: 0
- Morningglory plant response rating [14, 30]: 0
- Plant response rating, Morningglory [14, 31]: 0
- Morningglory plant response rating [14, 32]: 20
- Plant response rating (0 to 100 scale), Pigweed [15, 29]: 20
- Pigweed plant response rating [15, 30]: 10
- Plant response rating, Pigweed [15, 31]: 100
- Pigweed plant response rating [15, 32]: 50
- Plant response rating (0 to 100 scale), Rice ([16]; 125 g ai/ha, 0 is no effect, 100 is complete control): 0
- Plant response rating, Rice ([16]; 500 g ai/ha, visual rating, 0 = no effect, 100 = complete control): 0
- Plant response rating (0 to 100 scale), Velvetleaf [17, 29]: 10
- Velvetleaf plant response rating [17, 30]: 20
- Plant response rating, Velvetleaf [17, 31]: 20
- Velvetleaf plant response rating [17, 32]: 20
- Blackgrass plant response rating [18, 30]: 0
- Blackgrass plant response rating [18, 32]: 0
- Wheat plant response rating [19, 30]: 0
- Wheat plant response rating [19, 32]: 0
- Oat, Wild plant response rating [20, 30]: 0
- Oat, Wild plant response rating [20, 32]: 10
- Rice plant response rating [21]: 0
- Sedge, Umbrella plant response rating [22]: 0
- Ducksalad plant response rating [23]: 0
- Barnyardgrass plant response rating [24]: 0
